Drawing on patent publication US8673929B2, “4,6-di- and 2,4,6-trisubstituted quinazoline derivatives and pharmaceutical compositions useful for treating viral infections” (priority 2006, dated 2014), this text covers CC50 and EC50 for 30 compounds.

Some results are limits rather than exact numbers.

One may read the CC50 as the concentration giving 50% cytotoxicity. The low end stands for harm at low concentration, the high end for better tolerance by the cells. The EC50 is the concentration needed to bring the measured effect to its halfway point. Low readings indicate a more potent agent, high ones a less potent agent.

A short description of data set [1]: CC50 assay in the anti-HCV replicon assay (CellTiter-Glo). The format is cell-based, human. Conditions: human, Huh-7 hepatoma cells harbouring an HCV replicon; Huh-7 HCV replicon cells, 3 days incubation, CellTiter-Glo luminescence. As to the method: (§1) The anti HCV activity of the quinazoline derivatives of this invention was tested in a human hepatoma Huh-7 cell line harbouring a HCV replicon. The assay comprised the following steps:
(§2) Step 1: compound preparation and serial dilution • 1. for water soluble quinazoline derivatives, a volume of 500 μL of solution in cell media (DMEM, 10% FBS, P/S, L-Glutamine) was prepared with a concentration being twice the concentration of the starting final serial dilution concentration. A volume of 150 μL of the solution was added to the pre-specified wells in column 1 of a 96-well cell culture plate (PerkinElmer, white plate, cat. #6005181, for EC50 assay; black plate, cat. #6005182 for CC50 assay). The rest of the plate, columns 2-12, was filled with 100 μL of cell media. The plate was then placed on a Precision 2000 Workstation to start the serial dilution. Compounds were diluted three times each step from column 1 to column 10. Column 11 was used as a blank control (no compound added). • 2. for quinazoline derivatives requiring DMSO to dissolve, serial dilution is performed in 50% DMSO in a 384-well plate. A solution containing a compound at 100-fold concentration of the starting final serial dilution concentration was prepared in 50% DMSO and added to the pre-specified wells in column 1 of a polypropylene 384-well plate. The plate was then placed on a Precision 2000 Workstation to start the serial dilution. After the serial dilution, a volume of 2 μL of the solution was transferred from the 384-well plate to a 96-well cell culture plate containing 100 μL of cell media on a Biomek FX Workstation. The DMSO concentration in the final assay condition was 0.5% after cells are added to the plate and the total volume in each well is brought to 200 μL.
(§3) Step 2: to each well of the serial dilution plate prepared above, 100 μL of cell media containing 6000 suspended Huh-7 HCV replicon cells was added with a Multidrop workstation. The plates were incubated for 3 days at 37° C. with 5% CO2.
(§4) Step 3: detection: • a) for the EC50 assay, the media in a 96-well cell culture plate was aspirated with a Biotek EL405 plate-washer. A volume of 200 μL of a solution containing a 1:1 mixture of cell-lysis buffer (Promega, Luciferase Cell Culture Lysis 5× Reagent, cat. #E1531) and luciferase substrate solution (Promega, Luciferase Assay, cat.# E4550) was added to each well of the plate with Multidrop. The plate was incubated for 30 minutes at room temperature before the luminescence signal was measured with a TopCount plate-reader. • b) for the CC50 assay, a volume of 100 μL of pre-mixed CellTiter-Glo (Promega, cat.# G7572) solution is added directly to the cell culture in each well of the plate and the luminescence signal is measured with a TopCount plate-reader after 10 minutes of incubation at room temperature.
(§5) Results in the table below are expressed by the following data: • the 50% cytostatic concentration (CC50), i.e. the concentration that results in 50% inhibition of cell growth, and • the 50% effective concentration (EC50), i.e. the concentration that […].
In general terms: A replicon is a self-replicating genome or part of one, used to study replication in cells.

A further data set concerns HCV replicon. The data set is described as follows: Anti-HCV replicon assay, EC50 (luciferase readout). The class given is cell-based. Conditions: Hepatitis C virus, 72 h; Huh-7 HCV replicon cells, 3 days incubation, luciferase luminescence. As to the method: as §1, §2, §3, §4, §5

In data set [1], `COCCOc1nc(N)nc2ccc(-c3cccs3)cc12` [Example 58, 4-(2-Methoxy-ethoxy)-6-thiophen-2-yl-quinazolin-2-ylamine] displayed a cytotoxic concentration (CC50) at 3 days above 20 µM. In the data set with HCV replicon, this compound returned an EC50 of 1 to 10 µM.
The corresponding values for `CNC(=O)c1ccc(-c2ccc3nc(N)nc(OCCOC)c3c2)cc1` [Example 59, 4-(2-Amino-4-(2-methoxy-ethoxy)-quinazolin-6-yl)-N-methyl-benzamide] are above 20 µM and 1 to 10 µM.
The corresponding values for `COCCOc1nc(N)nc2ccc(-c3ccco3)cc12` [Example 60, 4-(2-Methoxy-ethoxy)-6-furan-2-yl-quinazolin-2-ylamine] are above 20 µM and 1 to 10 µM.
The corresponding values for `COCCOc1nc(N)nc2ccc(-c3ccsc3)cc12` [Example 61, 4-(2-Methoxy-ethoxy)-6-thiophen-3-yl-quinazolin-2-ylamine] are above 20 µM and 1 to 10 µM.
As for `COCCOc1nc(N)nc2ccc(-c3ccc(F)c(F)c3)cc12` [Example 62, 6-(3,4-Difluoro-phenyl)-4-(2-methoxy-ethoxy)-quinazolin-2-ylamine], the CC50 at 3 days in data set [1] fell in the range of 10 to 20 µM. The same compound registered an EC50 with HCV replicon of 1 to 10 µM.
Take `COCCOc1nc(N)nc2ccc(-c3cccc(C#N)c3)cc12` [Example 63, 3-(2-Amino-4-(2-methoxy-ethoxy)-quinazolin-6-yl)-benzonitrile]: the cytotoxic concentration (CC50) at 3 days in data set [1] is above 20 µM. This compound also yielded an EC50 in the data set with HCV replicon of 1 to 10 µM.
The corresponding values for `COCCOc1nc(N)nc2ccc(-c3cn[nH]c3)cc12` [Example 64, 4-(2-Methoxy-ethoxy)-6-(2H-pyrazol-4-yl)-quinazolin-2-ylamine] are above 20 µM and 1 to 10 µM.
The corresponding values for `COCCOc1nc(N)nc2ccc(-c3ccc(N)cc3)cc12` [Example 65, 6-(4-Amino-phenyl)-4-(2-methoxy-ethoxy)-quinazolin-2-ylamine] are above 20 µM and 1 to 10 µM.
As to `COCCOc1nc(N)nc2ccc(-c3ccc(F)c(F)c3F)cc12` [Example 66, 4-(2-Methoxy-ethoxy)-6-(2,3,4-trifluoro-phenyl)-quinazolin-2-ylamine], in data set [1], the cytotoxic concentration (CC50) at 3 days is above 20 µM. In the data set with HCV replicon, this compound came in with a 50% effective concentration (EC50) of 1 to 10 µM.
For `COCCOc1nc(N)nc2ccc(-c3ccc(F)cc3C)cc12` [Example 67, 6-(4-Fluoro-2-methyl-phenyl)-4-(2-methoxy-ethoxy)-quinazolin-2-ylamine], in that order: 10 to 20 µM and 1 to 10 µM.
`COCCOc1nc(N)nc2ccc(-c3ccc(O)cc3)cc12` [Example 68, 4-[2-Amino-4-(2-methoxy-ethoxy)-quinazolin-6-yl]-phenol] came in with a CC50 at 3 days in data set [1] of 10 to 20 µM. The compound also gave a concentration giving a half-maximal response (EC50) in the data set on HCV replicon of 0.3 to 1 µM.
As to `COCCOc1nc(N)nc2ccc(-c3ccc(Cl)c(C(F)(F)F)c3)cc12` [Example 69, 6-(4-Chloro-3-trifluoromethyl-phenyl)-4-(2-methoxy-ethoxy)-quinazolin-2-ylamine], the CC50 at 3 days in data set [1] was above 20 µM. In addition, the 50% effective concentration (EC50) with HCV replicon fell in the range of 1 to 10 µM.
Take `Nc1nc(OCc2ccccc2)c2cc(-c3ccn[nH]3)ccc2n1` [Example 70, 4-Benzyloxy-6-(2H-pyrazol-3-yl)-quinazolin-2-ylamine]: the cytotoxic concentration (CC50) at 3 days in data set [1] lay within 10 to 20 µM. This compound also returned a concentration giving a half-maximal response (EC50) in the data set with HCV replicon of 1 to 10 µM.
On to `CNC(=O)c1ccc(-c2ccc3nc(N)nc(OCc4ccccc4)c3c2)cc1` [Example 71, 4-(2-Amino-4-benzyloxy-quinazolin-6-yl)-N-methyl-benzamide], for which the CC50 at 3 days in data set [1] is above 20 µM. This compound gave an EC50 in the data set on HCV replicon of 0.3 to 1 µM.
`Nc1nc(OCc2ccccc2)c2cc(-c3cn[nH]c3)ccc2n1` [Example 72, 4-benzyloxy-6-(1H-pyrazol-4-yl)-quinazolin-2-ylamine]: the cytotoxic concentration (CC50) at 3 days in data set [1] is above 20 µM. In addition, the EC50 with HCV replicon lay within 1 to 10 µM.
Compound `CN(C)CCOCCOc1nc(N)nc2ccc(-c3ccc(OC(F)(F)F)cc3)cc12` [Example 73, 4-[2-(2-Dimethylamino-ethoxy)-ethoxy]-6-(4-trifluoromethoxy-phenyl)-quinazolin-2-ylamine] yielded a CC50 at 3 days in data set [1] of 10 to 20 µM. Besides, the EC50 with HCV replicon was in the range of 1 to 10 µM.
In turn, `CC(C)Oc1nc(N)nc2ccc(-c3ccc(F)cc3F)cc12` [Example 74, 6-(2,4-Difluoro-phenyl)-4-isopropoxy-quinazolin-2-ylamine] displayed a CC50 at 3 days in data set [1] of 10 to 20 µM. Also, the EC50 with HCV replicon fell in the range of 1 to 10 µM.
As for `CC(C)Oc1nc(N)nc2ccc(-c3cccc(F)c3F)cc12` [Example 75], in data set [1], the CC50 at 3 days was above 20 µM. This compound registered a concentration for a half-maximal effect (EC50) with HCV replicon of 0.3 to 1 µM.
For the compound `CC(C)Oc1nc(N)nc2ccc(-c3cccc(C(F)(F)F)c3)cc12` [Example 76, 4-Isopropoxy-6-(3-trifluoromethyl-phenyl)-quinazolin-2-ylamine], in data set [1], the CC50 at 3 days is above 20 µM. This compound also yielded an EC50 with HCV replicon of 1 to 10 µM.
The corresponding values for `CC(C)Oc1nc(N)nc2ccc(-c3ccccc3C(F)(F)F)cc12` [Example 77, 4-Isopropoxy-6-(2-trifluoromethyl-phenyl)-quinazolin-2-ylamine] are 10 to 20 µM and 1 to 10 µM.
In data set [1], `CC(C)Oc1nc(N)nc2ccc(-c3ccc(Cl)cc3)cc12` [Example 78, 4-Isopropoxy-6-(4-chloro-phenyl)-quinazolin-2-ylamine] came in with a CC50 at 3 days above 20 µM. The compound also displayed a concentration giving a half-maximal response (EC50) with HCV replicon of 1 to 10 µM.
Consider `Cc1ccc(-c2ccc3nc(N)nc(OC(C)C)c3c2)cc1` [Example 79, 4-Isopropoxy-6-p-tolyl-quinazolin-2-ylamine], for which the CC50 at 3 days in data set [1] is above 20 µM. The compound further registered a 50% effective concentration (EC50) with HCV replicon of 1 to 10 µM.
The corresponding values for `CC(C)Oc1nc(N)nc2ccc(-c3ccc(Cl)cc3Cl)cc12` [Example 80, 6-(2,4-Dichloro-phenyl)-4-isopropoxy-quinazolin-2-ylamine] are above 20 µM and 1 to 10 µM.
In turn, `CC(C)Oc1nc(N)nc2ccc(-c3ccc(F)cc3Cl)cc12` [Example 81, 6-(2-Chloro-4-fluoro-phenyl)-4-isopropoxy-quinazolin-2-ylamine] showed a half-maximal cytotoxic concentration (CC50) at 3 days in data set [1] of 10 to 20 µM. In the data set on HCV replicon, this compound returned a half-maximal effective concentration (EC50) of 1 to 10 µM.
Regarding `CC(C)Oc1nc(N)nc2ccc(-c3cccc(Cl)c3)cc12` [Example 82, 6-(3-Chloro-phenyl)-4-isopropoxy-quinazolin-2-ylamine], the half-maximal cytotoxic concentration (CC50) at 3 days in data set [1] is above 20 µM. Besides, the concentration giving a half-maximal response (EC50) in the data set with HCV replicon is 1 to 10 µM.
Compound `CC(C)Oc1nc(N)nc2ccc(-c3cc4ccccc4s3)cc12` [Example 83, 6-Benzo[b]thiophen-2-yl-4-isopropoxy-quinazolin-2-ylamine] displayed a 50% cytotoxic concentration (CC50) at 3 days in data set [1] of 10 to 20 µM. For the same compound, in the data set with HCV replicon, the concentration for a half-maximal effect (EC50) fell in the range of 1 to 10 µM.
For `CC(C)Oc1nc(N)nc2ccc(-c3ccoc3)cc12` [Example 84, 6-Furan-3-yl-4-isopropoxy-quinazolin-2-ylamine], in that order: 10 to 20 µM and 0.3 to 1 µM.
Consider `CC(C)Oc1nc(N)nc2ccc(-c3ccn[nH]3)cc12` [Example 85, 4-Isopropoxy-6-(2H-pyrazol-3-yl)-quinazolin-2-ylamine], for which, in data set [1], the CC50 at 3 days was above 20 µM. In addition, the EC50 with HCV replicon is 0.3 to 1 µM.
`CC(C)Oc1nc(N)nc2ccc(-c3cc4ccccc4o3)cc12` [Example 86, 6-Benzofuran-2-yl-4-isopropoxy-quinazolin-2-ylamine] registered a CC50 at 3 days in data set [1] above 20 µM. The compound also displayed a half-maximal effective concentration (EC50) in the data set with HCV replicon of 0.3 to 1 µM.
The compound `CNC(=O)c1ccc(-c2ccc3nc(N)nc(OC(C)C)c3c2)cc1` [Example 87, 4-(2-Amino-4-isopropoxy-quinazolin-6-yl)-N-methyl-benzamide] came in with a CC50 at 3 days in data set [1] of 10 to 20 µM. Further, the half-maximal effective concentration (EC50) in the data set with HCV replicon lay in the range of 0.3 to 1 µM.
